In patent publication US10714208B2, “Computer systems for treating diseases” (Biotempus Limited, priority 2009, dated 2020):

Tested on: metastatic melanoma
Test: Pilot clinical study: temozolomide chemotherapy timed relative to the CRP oscillation cycle
Type: in vivo, human
Experimental: A pilot clinical study was conducted on 12 patients with metastatic melanoma (median age 61; 4 female; 7 with M1c disease) at The Mayo Clinic, Rochester, Minn., USA headed by Dr Svetomir Markovic. Serial CRP measurements were taken every 2-3 days for 2 weeks. The CRP oscillation cycle was identified by analysis of the raw data without any computer aided modelling, and chemotherapy with temozolomide (200 mg/m2 for 5 days, every 28 days) was initiated. Patients were evaluated for clinical and immune response endpoints every 8 weeks until progression.

## Cn1nnc2c(C(N)=O)ncn2c1=O [temozolomide]
The other patients, treated post CRP-peak
  time to progression: < 5 months
Two patients with metastatic melanoma treated in the pre-peak section of the CRP cycle, temozolomide 200 mg/m2 for 5 days, every 28 days
  remain progression-free: > 2 years
